Results taken from ChEMBL document CHEMBL5038584, “Dual-Targeting Antiproliferation Hybrids Derived from 1-Deoxynojirimycin and Kaempferol Induce MCF-7 Cell Apoptosis through the Mitochondria-Mediated Pathway” (J Nat Prod, 2021).
Activity calls are given as the source filed them. The calls are words filed in the database; no cut-off is given here.

How the values were obtained:
[1] = Lipophilicity, logP of compound by shake flask method; type: physicochemical; details: octanol/water
[2] = tested on: MCF7; assay: Cytotoxicity against human MCF7 cells measured after 48 hrs by MTT assay; type: functional, cell-based; details: MCF7, 48 h
[3] = tested on: HCC1937; assay: Cytotoxicity against human HCC1937 cells measured after 48 hrs by MTT assay; type: functional, cell-based; details: HCC1937, 48 h
[4] = tested on: HepG2; assay: Cytotoxicity against human HepG2 cells measured after 48 hrs by MTT assay; type: functional, cell-based; details: HepG2, 48 h
[5] = tested on: HCT-116; assay: Cytotoxicity against human HCT-116 cells measured after 48 hrs by MTT assay; type: functional, cell-based; details: HCT-116, 48 h
[6] = tested on: BGC-823; assay: Cytotoxicity against human BGC-823 cells measured after 48 hrs by MTT assay; type: functional, cell-based; details: BGC-823, 48 h
[7] = tested on: A549; assay: Cytotoxicity against human A549 cells measured after 48 hrs by MTT assay; type: functional, cell-based; details: A549, 48 h
[8] = tested on: MCF7; assay: Antimigratory activity against human MCF7 cells at 10 uM after 24 hrs by inverted fluorescence microscope analysis relative to control (reference value: 82.9%).; type: functional
[9] = tested on: MCF7; assay: Cell cycle arrest in human MCF7 cells assessed as accumulation of cells at G1 phase at 20 uM measured after 24 hrs by PI staining based flow cytometry assay (reference value: 59.45%); type: functional
[10] = tested on: MCF7; assay: Cell cycle arrest in human MCF7 cells assessed as accumulation of cells at S phase at 20 uM measured after 24 hrs by PI staining based flow cytometry assay (reference value: 25.64%); type: functional
[11] = tested on: MCF7; assay: Cell cycle arrest in human MCF7 cells assessed as accumulation of cells at G2 phase at 20 uM measured after 24 hrs by PI staining based flow cytometry assay (reference value: 14.91%); type: functional
[12] = tested on: MCF7; assay: Induction of apoptosis in human MCF7 cells assessed as viable cells at 20 uM measured after 24 hrs by AnnexinV/[…]-PI staining based flow cytometry method (Rvb =97 %); type: functional; details: read-out: Activity
[13] = tested on: MCF7; assay: Induction of apoptosis in human MCF7 cells assessed as early apoptotic cells at 20 uM measured after 24 hrs by AnnexinV/[…]-PI staining based flow cytometry method (Rvb =0.466 %); type: functional
[14] = tested on: MCF7; assay: Induction of apoptosis in human MCF7 cells assessed as late apoptotic cells at 20 uM measured after 24 hrs by AnnexinV/[…]-PI staining based flow cytometry method (Rvb =1.28 %); type: functional
[15] = tested on: MCF7; assay: Induction of apoptosis in human MCF7 cells assessed as necrotic cells at 20 uM measured after 24 hrs by AnnexinV/[…]-PI staining based flow cytometry method (Rvb =1.28 %); type: functional
[16] = tested on: MCF7; assay: Anticlonogenic activity against human MCF7 cells assessed as inhibition of colony formation at 5 to 10 uM measured after 48 hrs by crystal violet staining based colony forming assay; type: functional, cell-based; details: dose 5-10 µM
[17] = tested on: MCF7; assay: Antimigratory activity against human MCF7 cells at 5 uM after 24 hrs by inverted fluorescence microscope analysis relative to control (reference value: 82.9%); type: functional
[18] = tested on: MCF7; assay: Cell cycle arrest in human MCF7 cells assessed as accumulation of cells at G1 phase at 10 uM measured after 24 hrs by PI staining based flow cytometry assay (reference value: 59.45%); type: functional
[19] = tested on: MCF7; assay: Cell cycle arrest in human MCF7 cells assessed as accumulation of cells at S phase at 10 uM measured after 24 hrs by PI staining based flow cytometry assay (reference value: 25.64%); type: functional
[20] = tested on: MCF7; assay: Cell cycle arrest in human MCF7 cells assessed as accumulation of cells at G2 phase at 10 uM measured after 24 hrs by PI staining based flow cytometry assay (reference value: 14.91%); type: functional
[21] = tested on: MCF7; assay: Induction of apoptosis in human MCF7 cells assessed as cell shrinkage at 20 uM measured after 24 hrs by Hoechst 33342 staining based flourescence microscopy method; type: functional
[22] = tested on: MCF7; assay: Induction of apoptosis in human MCF7 cells assessed as nuclear changes at 20 uM measured after 24 hrs by Hoechst 33342 staining based flourescence microscopy method; type: functional, cell-based
[23] = tested on: MCF7; assay: Induction of apoptosis in human MCF7 cells assessed as viable cells at 10 uM measured after 24 hrs by AnnexinV/[…]-PI staining based flow cytometry method (Rvb =97 %); type: functional; details: read-out: Activity
[24] = tested on: MCF7; assay: Induction of apoptosis in human MCF7 cells assessed as early apoptotic cells at 10 uM measured after 24 hrs by AnnexinV/[…]-PI staining based flow cytometry method (Rvb =0.466 %); type: functional
[25] = tested on: MCF7; assay: Induction of apoptosis in human MCF7 cells assessed as late apoptotic cells at 10 uM measured after 24 hrs by AnnexinV/[…]-PI staining based flow cytometry method (Rvb =1.28 %); type: functional
[26] = tested on: MCF7; assay: Induction of apoptosis in human MCF7 cells assessed as necrotic cells at 10 uM measured after 24 hrs by AnnexinV/[…]-PI staining based flow cytometry method (Rvb =1.28 %); type: functional
[27] = tested on: MCF7; assay: Induction of mitochondrial membrane potential loss in human MCF7 cells at 5 to 10 uM measured after 24 hrs by JC-1 staining based flourescence microscopy method; type: functional, cell-based; details: dose 5-10 µM
[28] = tested on: MCF7; assay: Induction of apoptosis in human MCF7 cells assessed as increase in intracellular ROS levels at 10 uM measured after 24 hrs by DCFH-DA staining based flow cytometry method; type: functional, cell-based
[29] = tested on: MCF7; assay: Induction of intracellular calcium level in human MCF7 cells at 5 to 10 uM measured after 24 hrs by Fluo-4AM staining based flourescence microscopy method; type: functional, cell-based; details: dose 5-10 µM
[30] = tested on: MCF7; assay: Induction of apoptosis in human MCF7 cells assessed as decrease of COX-2 protein level at 10 uM measured after 24 hrs by Western blot assay; type: functional, cell-based
[31] = tested on: MCF7; assay: Induction of apoptosis in human MCF7 cells assessed as decrease of Bcl2 protein level at 10 uM measured after 24 hrs by Western blot assay; type: functional, cell-based
[32] = tested on: MCF7; assay: Induction of apoptosis in human MCF7 cells assessed as increase of Bax protein level at 10 uM measured after 24 hrs by Western blot assay; type: functional, cell-based
[33] = tested on: MCF7; assay: Induction of apoptosis in human MCF7 cells assessed as increase of Bax/Bcl2 ratio at 10 uM measured after 24 hrs by Western blot assay; type: functional, cell-based
[34] = tested on: MCF7; assay: Induction of apoptosis in human MCF7 cells at 10 uM measured after 24 hrs by AnnexinV/[…]-PI staining based flow cytometry method; type: functional
[35] = tested on: MCF7; assay: Induction of apoptosis in human MCF7 cells at 20 uM measured after 24 hrs by AnnexinV/[…]-PI staining based flow cytometry method; type: functional

## OC[C@H]1NC[C@H](O)[C@@H](O)[C@@H]1O [DUVOGLUSTAT]
[1]
  logP: -0.68
[2]
  IC50: > 10 µM
[3]
  IC50: > 10 µM
[4]
  IC50: > 10 µM
[5]
  IC50: > 10 µM
[6]
  IC50: > 10 µM
[7]
  IC50: > 10 µM
[8]
  Activity: 78.4%
[9]
  Activity: 49.59%
[10]
  Activity: 31.41%
[11]
  Activity: 19%
[12]
  viability at 20 µM: 96.6%
[13]
  Activity: 0.409%
[14]
  Activity: 1.75%
[15]
  Activity: 1.19%

## COc1ccc(-c2oc3cc(OC)cc(OC)c3c(=O)c2OCCCCCCCCCCCN2C[C@H](O)[C@@H](O)[C@H](O)[C@H]2CO)cc1
[1]
  logP: 2.92
[2]
  IC50: 3.6 µM
[3]
  IC50: 7.1 µM
[4]
  IC50: 7.7 µM
[5]
  IC50: 7.8 µM
[6]
  IC50: 4.5 µM
[7]
  IC50: 5.1 µM
[16]
  Activity: Active
[17]
  Activity: 56.5%
[8]
  Activity: 46%
[18]
  Activity: 55.3%
[19]
  Activity: 26.6%
[20]
  Activity: 18.07%
[9]
  Activity: 42.64%
[10]
  Activity: 56.48%
[11]
  Activity: 0.87%
[21]
  Activity: Active
[22]
  Activity: Active
[23]
  viability at 10 µM: 89.5%
[24]
  Activity: 0.508%
[25]
  Activity: 5.97%
[26]
  Activity: 4.03%
[12]
  viability at 20 µM: 27.3%
[13]
  Activity: 37.9%
[14]
  Activity: 29.9%
[15]
  Activity: 4.83%
[27]
  Activity: Active
[28]
  Activity: Active
[29]
  Activity: Dose-Dependent Effect
[30]
  Activity: Active
[31]
  Activity: Active
[32]
  Activity: Active
[33]
  Activity: Active
[34]
  Activity: 6.48%
[35]
  Activity: 67.8%

## COc1ccc(-c2oc3cc(OC)cc(OC)c3c(=O)c2OCCCCCN2C[C@H](O)[C@@H](O)[C@H](O)[C@H]2CO)cc1
[1]
  logP: 0.49
[2]
  IC50: > 10 µM
[3]
  IC50: > 10 µM
[4]
  IC50: > 10 µM
[5]
  IC50: > 10 µM
[6]
  IC50: > 10 µM
[7]
  IC50: > 10 µM

## COc1ccc(-c2oc3cc(OC)cc(OC)c3c(=O)c2OCCCCCCCCN2C[C@H](O)[C@@H](O)[C@H](O)[C@H]2CO)cc1
[1]
  logP: 1.65
[2]
  IC50: > 10 µM
[3]
  IC50: > 10 µM
[4]
  IC50: > 10 µM
[5]
  IC50: 8.8 µM
[6]
  IC50: > 10 µM
[7]
  IC50: 7.6 µM

## O=c1c(O)c(-c2ccc(O)cc2)oc2cc(O)cc(O)c12 [KAEMPFEROL]
[2]
  IC50: > 10 µM
[3]
  IC50: > 10 µM
[4]
  IC50: > 10 µM
[5]
  IC50: > 10 µM
[6]
  IC50: > 10 µM
[7]
  IC50: > 10 µM
[8]
  Activity: 79.9%
[9]
  Activity: 53.49%
[10]
  Activity: 29.49%
[11]
  Activity: 7.02%
[12]
  viability at 20 µM: 95.4%
[13]
  Activity: 0.556%
[14]
  Activity: 2.43%
[15]
  Activity: 1.61%
[30]
  Activity: Active
